Literature values, collected in patent publication US20250032585A1, “Effective Doses of CNP Conjugates” (Ascendis Pharma Growth Disorders A/S, priority 2021, published 2025).

Assays:
[1] = in vivo, sc
[2] = tested on: pediatric patients with achondroplasia
NPR-B receptor = conditions: pediatric patients with achondroplasia; increase from pre-dose baseline

vosoritide
half-life [1]: 21.0 to 27.9 min
treatment difference in the change from baseline in annual growth velocity (AGV) compared to placebo ([2]; after 52 weeks of treatment): 1.57 cm/year
subjects with decreased blood pressure ([2]; human, in vivo): 13%
subjects with symptomatic episode of decreased blood pressure with vomiting and/or dizziness ([2]; human, in vivo): 3%
time of maximum urinary cGMP level post-dose (NPR-B receptor): 2 h
